Five molecules from patent US20090227673A1, “Method and Composition for the Treatment of Parkinson's Disease” (priority 2006, published 2009) can be followed below.

As a reminder, the IC50 is the point on the concentration scale where inhibition reaches its midpoint.

The experiment addresses T1, human COMT (Homo sapiens, UniProt P21964).
T1 construct: from tissue; host or cells: human liver cytosol (preparations HL4C, HL9C, HL8C)
T1 sequence (P21964 1-221 isoform P21964-2): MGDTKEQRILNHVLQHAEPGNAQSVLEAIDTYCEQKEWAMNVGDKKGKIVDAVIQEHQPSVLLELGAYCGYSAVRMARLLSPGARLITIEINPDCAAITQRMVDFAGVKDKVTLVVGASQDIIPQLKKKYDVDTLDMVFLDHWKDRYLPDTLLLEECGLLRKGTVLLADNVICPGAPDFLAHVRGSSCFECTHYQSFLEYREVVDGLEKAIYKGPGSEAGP
Description: Inhibition of human liver COMT-mediated o-methylation of catecholamines (human liver cytosol, [3H-methyl]AdoMet). Type of experiment: biochemical.

Setting [1] is: 10 μM catecholamine substrate, 250 μM AdoMet, 0.25 mg/mL human liver cytosolic protein, 37° C., 10 min, pH 7.4.

Read-outs that look alike come from different tables or passages of the source.

`O=C(/C=C/c1ccc(O)c(O)c1)OCCc1ccccc1` [caffeic acid pheethyl ester, caffeic acid phenethyl ester] gave an IC50 of 500 to 1000 nM.
With `O=C(O)/C=C/c1ccc(O)c(O)c1` [caffeic acid], the 50% inhibitory concentration (IC50) under setting [1] is 500 to 1000 nM.
`O=C(/C=C/c1ccc(O)c(O)c1)O[C@@H]1C[C@](O)(C(=O)O)C[C@@H](O)[C@H]1O` [chlorogenic acid]: the IC50 under setting [1] lay within 500 to 1000 nM.
Still for that read-out and setting: for `Oc1cc(O)c2c(c1)O[C@H](c1ccc(O)c(O)c1)[C@H](O)C2` [epicatechin] the value was 500 to 1000 nM.
Same read-out and setting: for `O=c1c(O)c(-c2ccc(O)c(O)c2)oc2cc(O)cc(O)c12` [quercetin] the value was ~331 nM.
